Literature values, collected in patent publication US11865215B2, “Tablet compositions comprising abiraterone acetate” (SYNTHON B.V., priority 2018, dated 2024).

Columns and labels:
[1] = not given; remark: listed apart in the source

Row | time to reach maximum plasma concentration of abiraterone (oral administration in the fasting state) | solubility in water [1] | Structure (SMILES) | effect of taking the tablet with food on absorption (with food) | BCS System class ([1]; compound of low solubility and low permeability)
1 | – | – | CC(=O)O[C@H]1CC[C@@]2(C)C(=CC[C@@H]3[C@@H]2CC[C@]2(C)C(c4cccnc4)=CC[C@@H]32)C1 [Abiraterone acetate, 3β-acetoxy-17-(3-pyridyl)androsta-5,16-diene] | significantly and undesirably increases the absorption | Class IV
2 | approx. 2 hours | less than 0.1 mg/ml | C[C@]12CC[C@H](O)CC1=CC[C@@H]1[C@@H]2CC[C@]2(C)C(c3cccnc3)=CC[C@@H]12 [Abiraterone] | – | –
